Source: patent publication US20090036450A1, “PYRAZOLE COMPOUNDS AND USE THEREOF” (JAPAN TOBACCO, INC., priority 2006, published 2009)
Counter-ions that a name gives are not always drawn.

Biological target: T1, human liver glycogen phosphorylase (Homo sapiens, UniProt P06737)
T1 construct: made in house; host or cells: Sf9 insect cells (suspension of disrupted cells, diluted in BES buffer, not purified)
T1 sequence (P06737 1-847): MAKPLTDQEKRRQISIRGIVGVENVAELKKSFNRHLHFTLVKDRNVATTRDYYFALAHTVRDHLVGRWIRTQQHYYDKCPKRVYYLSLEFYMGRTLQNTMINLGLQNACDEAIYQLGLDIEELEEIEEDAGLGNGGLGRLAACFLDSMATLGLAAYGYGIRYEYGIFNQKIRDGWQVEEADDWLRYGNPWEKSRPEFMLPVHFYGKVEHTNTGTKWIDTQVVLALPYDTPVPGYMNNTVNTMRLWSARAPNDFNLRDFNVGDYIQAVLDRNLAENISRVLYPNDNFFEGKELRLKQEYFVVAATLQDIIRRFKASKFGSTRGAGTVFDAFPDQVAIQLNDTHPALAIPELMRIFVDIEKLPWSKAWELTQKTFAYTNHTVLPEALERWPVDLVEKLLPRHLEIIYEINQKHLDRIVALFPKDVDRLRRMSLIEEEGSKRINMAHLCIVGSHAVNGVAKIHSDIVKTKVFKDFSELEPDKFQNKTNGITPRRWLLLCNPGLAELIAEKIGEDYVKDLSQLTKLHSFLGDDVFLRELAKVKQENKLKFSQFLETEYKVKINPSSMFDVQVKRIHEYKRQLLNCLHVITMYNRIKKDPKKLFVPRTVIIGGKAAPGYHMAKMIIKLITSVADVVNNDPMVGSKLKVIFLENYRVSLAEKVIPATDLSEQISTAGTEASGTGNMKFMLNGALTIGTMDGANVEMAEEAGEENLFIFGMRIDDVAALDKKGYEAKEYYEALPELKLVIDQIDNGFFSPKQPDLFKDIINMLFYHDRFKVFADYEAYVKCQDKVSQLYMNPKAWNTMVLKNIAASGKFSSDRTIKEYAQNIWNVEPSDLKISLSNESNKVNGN
Assay: Liver glycogen phosphorylase activity, forward reaction system (NADPH detection at 340 nm)
Assay type: biochemical
Settings: enzyme inhibitory activity against recombinant human liver glycogen phosphorylase (Sf9 cell lysate), room temperature, 75 minutes
Method: The glycogen phosphorylase activity was determined by a method using a forward reaction system.
The following method was used to determine the glycogen phosphorylase activity using a forward reaction system. Glucose-1-phosphate generated from glycogen by glycogen phosphorylase was converted to glucono-δ-lactone-6-phosphate by transphosphorylation and dehydrogenation reactions using phosphoglucomutase and glucose-6-phosphate dehydrogenase (G6PDH). At this time, NADPH generated from NADP in the dehydrogenation reaction by G6PDH was detected.
An enzyme solution of human liver glycogen phosphorylase was obtained by diluting with 100 mmol/L BES buffer (pH 6.8, containing 2 mmol/L EDTA) a suspension disrupted Sf9 cells in which a recombinant human liver glycogen phosphorylase was forcibly expressed. Phosphate buffer (16 mmol/L KH2PO4, containing 24 mmol/L Na2HPO4) was used as a substrate solution. A mixture of 8 U/mL phosphoglucomutase and 60 U/mL G6PDH was prepared with BES buffer. A reaction buffer (1.4 mmol/L NADP, 30 mmol/L MgCl2, 8 μmol/L glucose-1,6-diphosphate, 8 mg/mL glycogen, 40 mmol/L BES, containing 0.8 mmol/L EDTA) and a glucose solution (75 mmol/L glucose and 100 mmol/L BES, containing 2 mmol/L EDTA) were prepared. A test substance was dissolved in 1% DMSO aqueous solution.
To a mixture of the glucose solution (20 μL), the substrate solution (20 μL), the reaction buffer (100 μL), and the test substance (20 μL), the recombinant human liver glycogen phosphorylase solution (20 μL), and a mixture (20 μL) of phosphoglucomutase and G6PDH were added to initiate an enzymatic reaction. To a control, 1% DMSO aqueous solution was added instead of the test substance. A solution to which the substrate was not added was used as a blank. After initiation of the reaction, absorbance at 340 nm was measured immediately. The reaction was performed at room temperature for 75 minutes, and then absorbance at 340 nm was measured again. The enzyme activity was obtained by deducting the change in absorbance of the blank for 75 minutes from the change in absorbance over 75 minutes. The inhibition rate (%) of the test substance was calculated by “(1−(enzyme activity of test substance)/(enzyme activity of control))×100”.
“IC50” represents an enzyme inhibitory activity against human liver glycogen phosphorylase.

Row | IC50 | Compound
1 | < 100 nM | Cc1cccc(-c2onc(C)c2CNC(=O)c2cc(NC(=O)c3cc(F)c(F)cc3Cl)[nH]n2)n1 [Example 1-19, 5-(2-chloro-4,5-difluoro-benzoylamino)-1H-pyrazole-3-carboxylic acid [3-methyl-5-(6-methyl-pyridin-2-yl)-isoxazol-4-ylmethyl]-amide]
2 | > 300 nM | Cc1nc(COC(c2ccccc2)(c2ccccc2)c2ccccc2)oc1CNC(=O)c1cc(NC(=O)c2cc(F)c(F)cc2Cl)[nH]n1 [Example 1-43, 5-(2-chloro-4,5-difluoro-benzoylamino)-1H-pyrazole-3-carboxylic acid (4-methyl-2-trityloxymethyl-oxazol-5-ylmethyl)-amide]
3 | < 100 nM | Cc1nc(C(=O)N2CCCCC2)oc1CNC(=O)c1cc(NC(=O)c2cc(F)c(F)cc2Cl)[nH]n1 [Example 3-15, 5-(2-chloro-4,5-difluoro-benzoylamino)-1H-pyrazole-3-carboxylic acid [4-methyl-2-(piperidine-1-carbonyl)-oxazol-5-ylmethyl]-amide]
4 | < 100 nM | Cc1nnsc1-c1nnc(CNC(=O)c2cc(NC(=O)c3cc(F)c(F)cc3Cl)[nH]n2)o1 [Example 1-78, 5-(2-chloro-4,5-difluoro-benzoylamino)-1H-pyrazole-3-carboxylic acid [5-(4-methyl-[1,2,3]thiadiazol-5-yl)-[1,3,4]oxadiazol-2-ylmethyl]-amide]
5 | < 100 nM | COc1cccc(-c2nnc(CNC(=O)c3cc(NC(=O)c4cc(F)c(F)cc4Cl)[nH]n3)o2)c1 [Example 1-60, 5-(2-chloro-4,5-difluoro-benzoylamino)-1H-pyrazole-3-carboxylic acid [5-(3-methoxy-phenyl)-[1,3,4]oxadiazol-2-ylmethyl]-amide]
6 | 100 to 300 nM | Cc1nc(-c2ccc(C(F)(F)F)cc2)sc1CNC(=O)c1cc(NC(=O)c2cc(F)c(F)cc2Cl)[nH]n1 [Example 1-6, 5-(2-chloro-4,5-difluoro-benzoylamino)-1H-pyrazole-3-carboxylic acid [4-methyl-2-(4-trifluoromethyl-phenyl)-thiazol-5-ylmethyl]-amide]
7 | < 100 nM | Cc1c(CNC(=O)c2cc(NC(=O)c3cc(F)c(F)cc3Cl)[nH]n2)nnn1Cc1ccc(Cl)cc1 [Example 1-63, 5-(2-chloro-4,5-difluoro-benzoylamino)-1H-pyrazole-3-carboxylic acid [1-(4-chloro-benzyl)-5-methyl-1H-[1,2,3]triazol-4-ylmethyl]-amide]
8 | < 100 nM | Cc1ncc(CNC(=O)c2cc(NC(=O)c3cc(F)c(F)cc3Cl)[nH]n2)c(-c2oc(C)nc2C)n1 [Example 1-83, 5-(2-chloro-4,5-difluoro-benzoylamino)-1H-pyrazole-3-carboxylic acid [4-(2,4-dimethyl-oxazol-5-yl)-2-methyl-pyrimidin-5-ylmethyl]-amide]
9 | < 100 nM | Cc1nc(C)c(-c2onc(C)c2CNC(=O)c2cc(NC(=O)c3cc(F)c(F)cc3Cl)[nH]n2)s1 [Example 1-22, 5-(2-chloro-4,5-difluoro-benzoylamino)-1H-pyrazole-3-carboxylic acid [5-(2,4-dimethyl-thiazol-5-yl)-3-methylisoxazol-4-ylmethyl]-amide]
10 | < 100 nM | Cc1nc(COC(=O)C2CCCCC2)c(CNC(=O)c2cc(NC(=O)c3cc(F)c(F)cc3Cl)[nH]n2)o1 [Example 3-23, 5-(2-chloro-4,5-difluoro-benzoylamino)-1H-pyrazole-3-carboxylic acid (4-cyclohexanecarbonyloxymethyl-2-methyl-oxazol-5-ylmethyl)-amide]
11 | 100 to 300 nM | CCN(CC)S(=O)(=O)c1ccsc1CNC(=O)c1cc(NC(=O)c2cc(F)c(F)cc2Cl)[nH]n1 [Example 1-2, 5-(2-chloro-4,5-difluoro-benzoylamino)-1H-pyrazole-3-carboxylic acid (3-diethylsulfamoyl-thiophen-2-ylmethyl)-amide]
12 | < 100 nM | CCOC(=O)c1[nH]c(CNC(=O)c2cc(NC(=O)c3cc(F)c(F)cc3Cl)[nH]n2)nc1C [Example 1-13, 5-(2-chloro-4,5-difluoro-benzoylamino)-1H-pyrazole-3-carboxylic acid (5-ethoxycarbonyl-4-methyl-1H-imidazol-2-ylmethyl)-amide]
13 | < 100 nM | Cc1cccc(-n2nc(C)c(CNC(=O)c3cc(NC(=O)c4cc(F)c(F)cc4Cl)[nH]n3)c2C)c1 [Example 1-66, 5-(2-chloro-4,5-difluoro-benzoylamino)-1H-pyrazole-3-carboxylic acid [3,5-dimethyl-1-(3-methyl-phenyl)-1H-pyrazol-4-ylmethyl]-amide]
14 | < 100 nM | O=C(NCc1cnn(-c2ccc(F)cc2)c1C1CC1)c1cc(NC(=O)c2cc(F)c(F)cc2Cl)[nH]n1 [Example 1-67, 5-(2-chloro-4,5-difluoro-benzoylamino)-1H-pyrazole-3-carboxylic acid [5-cyclopropyl-1-(4-fluoro-phenyl)-1H-pyrazol-4-ylmethyl]-amide]
15 | < 100 nM | Cc1ccc(-c2nc(C)c(CNC(=O)c3cc(NC(=O)c4cc(F)c(F)cc4Cl)[nH]n3)s2)s1 [Example 1-7, 5-(2-chloro-4,5-difluoro-benzoylamino)-1H-pyrazole-3-carboxylic acid [4-methyl-2-(5-methyl-thiophen-2-yl)-thiazol-5-ylmethyl]-amide]
16 | < 100 nM | CSCCc1oc(C)nc1CNC(=O)c1cc(NC(=O)c2cc(F)c(F)cc2Cl)[nH]n1 [Example 1-24, 5-(2-chloro-4,5-difluoro-benzoylamino)-1H-pyrazole-3-carboxylic acid [2-methyl-5-(2-methylsulfanyl-ethyl)-oxazol-4-ylmethyl]-amide]
17 | 100 to 300 nM | O=C(NCc1nnc(-c2cc3ccccc3s2)o1)c1cc(NC(=O)c2cc(F)c(F)cc2Cl)[nH]n1 [Example 1-77, 5-(2-chloro-4,5-difluoro-benzoylamino)-1H-pyrazole-3-carboxylic acid (5-benzo[b]thiophen-2-yl-[1,3,4]oxadiazol-2-ylmethyl)-amide]
18 | < 100 nM | O=C(NCc1cncnc1C1CC1)c1cc(NC(=O)c2cc(F)c(F)cc2Cl)[nH]n1 [Example 1-81, 5-(2-chloro-4,5-difluoro-benzoylamino)-1H-pyrazole-3-carboxylic acid (4-cyclopropyl-pyrimidin-5-ylmethyl)-amide]
19 | < 100 nM | CC(=O)NCc1nc(C)c(CNC(=O)c2cc(NC(=O)c3cc(F)c(F)cc3Cl)[nH]n2)o1 [Example 3-12, 5-(2-chloro-4,5-difluoro-benzoylamino)-1H-pyrazole-3-carboxylic acid [2-(acetylamino-methyl)-4-methyl-oxazol-5-ylmethyl]-amide dihydrochloride]
20 | 100 to 300 nM | O=C(O)Cc1nnc(CNC(=O)c2cc(NC(=O)c3cc(F)c(F)cc3Cl)[nH]n2)o1 [Example 3-19, 5-(2-chloro-4,5-difluoro-benzoylamino)-1H-pyrazole-3-carboxylic acid (5-carboxymethyl-[1,3,4]oxadiazol-2-ylmethyl)-amide]
21 | < 100 nM | O=C(NCc1nnc(-c2cccc(F)c2)o1)c1cc(NC(=O)c2cc(F)c(F)cc2Cl)[nH]n1 [Example 1-72, 5-(2-chloro-4,5-difluoro-benzoylamino)-1H-pyrazole-3-carboxylic acid [5-(3-fluoro-phenyl)-[1,3,4]oxadiazol-2-ylmethyl]-amide]
